One assay deals with T1, CB2 receptor (Homo sapiens, UniProt P34972).
T1 construct: expressed in transfected cells; host or cells: CHO cells, G418-selected transfected line
As to the kind of experiment: CB2 binding procedure: displacement of [3H]CP-55,940 from membranes of transfected CHO cells. The following applies: for CB1/CB2 (ratio of Ki): CB1 Ki divided by CB2 Ki; for Ki: means ± SEM, [3H]CP-55,940, transfected CHO cell membranes, read-out: Ki (nM) CB2; for fold decrease in CB2 affinity: relative to the comparator analog.

The next assay concerns Male ICR mice. As to the kind of experiment: Change in rectal temperature (RT) in mice. In kind it is in vivo, mouse. The following applies: Mus musculus, iv, mice, i.v.
[1] abbreviates: 95% confidence limits in parentheses, read-out: ED50 RT (rectal temperature).

Read-outs that look alike come from different tables or passages of the source.

For orientation: Ki means a measure of affinity in units of concentration, obtained from inhibition or displacement. Usually ED50 stands for the dose at which the effect has come halfway, by size or by number of responders.

T1 sequence (P34972 whole entry): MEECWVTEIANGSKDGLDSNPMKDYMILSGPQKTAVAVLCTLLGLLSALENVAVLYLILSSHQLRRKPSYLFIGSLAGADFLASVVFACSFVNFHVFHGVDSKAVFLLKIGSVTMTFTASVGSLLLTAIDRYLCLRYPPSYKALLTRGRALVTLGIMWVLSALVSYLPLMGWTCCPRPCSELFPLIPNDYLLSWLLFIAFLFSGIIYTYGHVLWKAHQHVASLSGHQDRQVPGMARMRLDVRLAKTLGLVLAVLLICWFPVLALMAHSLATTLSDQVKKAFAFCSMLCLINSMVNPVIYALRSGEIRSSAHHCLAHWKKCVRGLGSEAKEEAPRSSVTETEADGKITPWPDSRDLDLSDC

For `CCCCCCC(C)(C)c1cc(O)c(C2CCCC(C)C2)c(O)c1` (mixture of isomers) [O-1657, 2-(3-Methylcyclohexyl)-5-(1′,1′-dimethylheptyl)-resorcinol], at CB2 receptor, the “CB1/CB2 (ratio of Ki)” value was 17 and the Ki was determined as 0.8 ± 0.04 nM. Besides, in the assay with Male ICR mice (Table 6, read-out: R.T. ED50), the ED50 worked out at 0.29 mg/kg. Besides, the ED50 in the assay with Male ICR mice (setting [1]) stood at 0.9 µmol/kg.

Consider `CCCCCCC(C)(C)c1cc(O)c([C@H]2CCCC(C)C2)c(O)c1` (single isomer, unassigned) [O-1826], for which, at CB2 receptor, the “CB1/CB2 (ratio of Ki)” value is given as 50 and the Ki was 0.8 ± 0.05 nM. The ED50 with Male ICR mice (Table 6, read-out: R.T. ED50) was determined as 1.16 mg/kg. The ED50 in the assay with Male ICR mice (setting [1]) came out at 3.6 µmol/kg.

Consider `CCCCCCC(C)(C)c1ccc(-c2cc(C)ccc2C(C)C)c(O)c1` [O-1376, 3-1′,1′-Dimethylheptyl-6-(2-isopropyl-5-methylphenyl)phenol], for which, at CB2 receptor, the “CB1/CB2 (ratio of Ki)” value came to 11 and the Ki is 3 ± 0.4 nM. Moreover, the ED50 with Male ICR mice (Table 6, read-out: R.T. ED50) was found to be 0.822 mg/kg. Further, in the assay with Male ICR mice (setting [1]), the ED50 was 2.3 µmol/kg.

For `CCCCCCC(C)(C)c1cc(O)c(C2CCCCC2)c(O)c1` [O-1422, Cyclohexyl-5-(1′,1′-dimethylheptyl)-resorcinol], on CB2 receptor, the “CB1/CB2 (ratio of Ki)” value was found to be 7 and the Ki is 1.5 ± 0.1 nM. In the assay with Male ICR mice (Table 6, read-out: R.T. ED50), the ED50 was 0.194 mg/kg. The median effective dose (ED50) with Male ICR mice (setting [1]) came to 0.6 µmol/kg.

On to `CCCCCCC(C)(C)c1cc(O)c(C2=CCCCC2)c(O)c1` [O-1423], for which, at CB2 receptor, the “CB1/CB2 (ratio of Ki)” value is given as 3 and the Ki is 28 ± 5 nM. In the assay on Male ICR mice (Table 6, read-out: R.T. ED50), the ED50 came to 2.94 mg/kg. Further, the 50% effective dose (ED50) in the assay with Male ICR mice (setting [1]) amounted to 9 µmol/kg.

As for `CCCCCCC(C)(C)c1cc(O)c(C2CCSCC2)c(O)c1` [O-1425], at CB2 receptor, the “CB1/CB2 (ratio of Ki)” value came out at 13, the Ki was 12 ± 2 nM and the “fold decrease in CB2 affinity” value is 8 fold. In the assay on Male ICR mice (Table 6, read-out: R.T. ED50), the ED50 was 4.53 mg/kg. The ED50 with Male ICR mice (setting [1]) worked out at 13 µmol/kg.

On to `CCCCCCC(C)(C)c1cc(O)c(C2CCCCC2C)c(O)c1` (stereo not shown) [O-1658, 2-(2-Methylcyclohexyl)-5-(1′,1′-dimethylheptyl)-resorcinol], for which, at CB2 receptor, the “CB1/CB2 (ratio of Ki)” value is on record as 16 and the Ki was 1 ± 0.3 nM. For the same molecule, the ED50 in the assay with Male ICR mice (Table 6, read-out: R.T. ED50) is 0.12 mg/kg. Further, the ED50 in the assay on Male ICR mice (setting [1]) amounted to 0.3 µmol/kg.

For the molecule `CCCCCCC(C)(C)c1cc(O)c(C2CCC(C)CC2)c(O)c1` (stereo not shown) [O-1659, 2-(4-Methylcyclohexyl)-5-(1′,1′-dimethylheptyl)-resorcinol], at CB2 receptor, the “CB1/CB2 (ratio of Ki)” value was 9, the Ki came out at 5 ± 0.9 nM and the “fold decrease in CB2 affinity” value is listed as “about 5 fold”. For the same molecule, in the assay on Male ICR mice (Table 6, read-out: R.T. ED50), the ED50 is 1.12 mg/kg. The ED50 in the assay on Male ICR mice (setting [1]) amounted to 3.3 µmol/kg.

With `CCCCCCC(C)(C)c1cc(O)c(C2C3CC4CC(C3)CC2C4)c(O)c1` (stereo not shown) [O-1660, 2-(2-Adamantyl)-5-(1′,1′-di-methylheptyl)-resorcinol], the “CB1/CB2 (ratio of Ki)” value on CB2 receptor was found to be 2. The inhibition constant (Ki) at CB2 receptor turned out to be 3 ± 0.8 nM. For the same molecule, the ED50 in the assay on Male ICR mice (Table 6, read-out: R.T. ED50) amounted to 1.73 mg/kg; in the assay with Male ICR mice (setting [1]), 4.6 µmol/kg.

`CCCCCCC(C)(C)c1cc(O)c(C2CCSC2)c(O)c1` (stereo not shown) [O-1661, 2-(Tetrahydrothiophen-3-yl)-5-(1′,1′-dimethylheptyl)-re-sorcinol]: on CB2 receptor, the “CB1/CB2 (ratio of Ki)” value turned out to be 5. Besides, on CB2 receptor, the Ki worked out at 28 ± 12 nM. In addition, the ED50 in the assay on Male ICR mice (Table 6, read-out: R.T. ED50) turned out to be 7.78 mg/kg; with Male ICR mice (setting [1]) it was 24 µmol/kg.

Consider `CCCC(C)(C)c1cc(O)c(C2CCCC(C)C2)c(O)c1` (stereo not shown) [O-1890, 2-(3-Methylcyclohexyl)-5-(1′,1′-dimethylbutyl)-resorcinol], for which, at CB2 receptor, the “CB1/CB2 (ratio of Ki)” value was 7 and the Ki was 13 ± 1 nM. For the same molecule, the ED50 with Male ICR mice (Table 6, read-out: R.T. ED50) came out at 21 mg/kg. Also, in the assay with Male ICR mice (setting [1]), the ED50 was found to be 72 µmol/kg.

The values above are taken from patent publication US7179800B2 (priority 2002, dated 2007).
